Assay results reported in US11427548B2 (Arvinas Operations, Inc., priority 2015, dated 2022).
Like-named read-outs stand apart in the source and are kept apart here.

Molecular target: T1, Androgen Receptor (Homo sapiens, UniProt P10275)
T1 construct: endogenous in cells; host or cells: VCaP cells
T1 sequence (P10275 1-920): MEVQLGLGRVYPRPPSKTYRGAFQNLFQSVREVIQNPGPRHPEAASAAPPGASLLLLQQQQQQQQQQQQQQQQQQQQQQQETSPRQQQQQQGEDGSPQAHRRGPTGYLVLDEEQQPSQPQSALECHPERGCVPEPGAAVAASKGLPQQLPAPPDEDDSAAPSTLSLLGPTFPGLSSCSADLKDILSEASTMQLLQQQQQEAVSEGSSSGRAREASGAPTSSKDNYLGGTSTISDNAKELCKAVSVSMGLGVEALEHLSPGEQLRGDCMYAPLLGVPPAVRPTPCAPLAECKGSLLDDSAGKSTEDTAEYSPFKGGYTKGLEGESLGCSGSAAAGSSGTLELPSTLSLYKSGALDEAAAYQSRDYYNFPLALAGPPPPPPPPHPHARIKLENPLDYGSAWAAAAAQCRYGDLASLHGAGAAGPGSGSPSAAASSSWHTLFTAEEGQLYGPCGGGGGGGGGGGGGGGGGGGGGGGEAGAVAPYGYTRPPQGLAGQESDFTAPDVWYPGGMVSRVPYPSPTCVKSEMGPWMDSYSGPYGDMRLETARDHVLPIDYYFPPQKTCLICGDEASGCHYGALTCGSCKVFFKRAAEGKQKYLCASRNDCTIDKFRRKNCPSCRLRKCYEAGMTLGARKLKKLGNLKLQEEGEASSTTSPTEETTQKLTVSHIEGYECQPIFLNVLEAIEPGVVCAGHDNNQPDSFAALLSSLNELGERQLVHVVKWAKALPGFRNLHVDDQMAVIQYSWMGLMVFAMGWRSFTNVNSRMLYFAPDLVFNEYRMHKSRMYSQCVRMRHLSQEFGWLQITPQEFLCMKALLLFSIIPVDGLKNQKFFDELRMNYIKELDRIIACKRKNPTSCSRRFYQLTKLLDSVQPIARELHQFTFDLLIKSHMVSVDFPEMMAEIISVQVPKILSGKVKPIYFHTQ
Test: Androgen Receptor ELISA assay (PathScan AR ELISA) in VCaP cells: AR degradation, Dmax and DC50
Assay type: cell-based
Conditions: for DC50: read-out: VCaP DC50; for Dmax: VCaP, read-out: VCaP Dmax (%)
How it was run: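 After 24 h exposure of VCaP cells (charcoal-stripped serum, 0.1 nM R1881 agonist, 0.1% DMSO) to seven half-log compound concentrations, residual AR in lysates was measured by PathScan ELISA (TMB absorbance, 450 nm). Cells were plated at 30,000/well and grown at least 3 days beforehand.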

For Cc1ncsc1-c1ccc([C@H](C)NC(=O)[C@@H]2C[C@@H](O)CN2C(=O)[C@@H](NC(=O)COC2CC(N3CCN(c4ccc(C(=O)NC5C(C)(C)C(Oc6ccc(C#N)c(Cl)c6)C5(C)C)cn4)CC3)C2)C(C)(C)C)cc1 (stereo partly drawn) [Example 846, N-((1r,3R)-3-(3-chloro-4-cyanophenoxy)-2,2,4,4-tetramethylcyclobutyl)-6-(4-((1S,3R)-3-(2-(((S)-1-((2S,4R)-4-hydroxy-2-(((S)-1-(4-(4-methylthiazol-5-yl)phenyl)ethyl)carbamoyl)pyrrolidin-1-yl)-3,3-dimethyl-1-oxobutan-2-yl)amino)-2-oxoethoxy)cyclobutyl)piperazin-1-yl)nicotinamide], the DC50 (VCaP cells, Table 36) was less than 0.05 µM and the Dmax (VCaP cells, Table 36) was greater than 71%.
Cc1ncsc1-c1ccc([C@H](CO)NC(=O)[C@@H]2C[C@@H](O)CN2C(=O)[C@@H](NC(=O)CN2CCC(CN3CCN(c4ccc(C(=O)N[C@H]5C(C)(C)[C@H](Oc6ccc(C#N)c(Cl)c6)C5(C)C)cn4)CC3)CC2)C(C)(C)C)cc1 [Example 847, N-((1r,3r)-3-(3-chloro-4-cyanophenoxy)-2,2,4,4-tetramethylcyclobutyl)-6-(4-((1-(2-(((S)-1-((2S,4R)-4-hydroxy-2-(((R)-2-hydroxy-1-(4-(4-methylthiazol-5-yl)phenyl)ethyl)carbamoyl)pyrrolidin-1-yl)-3,3-dimethyl-1-oxobutan-2-yl)amino)-2-oxoethyl)piperidin-4-yl)methyl)piperazin-1-yl)nicotinamide] showed a DC50 (VCaP cells, Table 36) of less than 0.05 µM and a Dmax greater than 71%.
With Cc1ncsc1-c1ccc([C@H](C)NC(=O)[C@@H]2CC(O)CN2C(=O)[C@H](C(C)C)N2Cc3cc(OCCN4CCN(c5ccc(C(=O)N[C@H]6C(C)(C)[C@H](Oc7ccc(C#N)c(Cl)c7)C6(C)C)cn5)CC4)ccc3C2=O)cc1 (stereo partly drawn) [Example 848, N-((1r,3r)-3-(3-chloro-4-cyanophenoxy)-2,2,4,4-tetramethylcyclobutyl)-6-(4-(2-((2-((S)-1-((2S, 4R)-4-hydroxy-2-(((S)-1-(4-(4-methylthiazol-5-yl)phenyl)ethyl)carbamoyl)pyrrolidin-1-yl)-3-methyl-1-oxobutan-2-yl)-1-oxoisoindolin-5-yl)oxy)ethyl)piperazin-1-yl)nicotinamide] the DC50 (VCaP cells, Table 36) was less than 0.05 µM and the Dmax (VCaP cells, Table 36) was greater than 71%.
Compound Cc1ncsc1-c1ccc([C@H](C)NC(=O)[C@@H]2C[C@@H](O)CN2C(=O)[C@@H](NC(=O)COCCN2CCN(c3ccc(C(=O)N[C@H]4CC(Oc5ccc(C#N)c(Cl)c5)C4(C)C)cn3)CC2)C(C)(C)C)cc1 (stereo partly drawn) [Example 849, N-((1S)-3-(3-chloro-4-cyanophenoxy)-2,2-dimethylcyclobutyl)-6-(4-(2-(2-(((S)-1-((2S, 4R)-4-hydroxy-2-(((S)-1-(4-(4-methylthiazol-5-yl)phenyl)ethyl)carbamoyl)pyrrolidin-1-yl)-3,3-dimethyl-1-oxobutan-2-yl)amino)-2-oxoethoxy)ethyl)piperazin-1-yl)nicotinamide] has a DC50 (VCaP cells, Table 36) of less than 0.05 µM and a Dmax (VCaP cells, Table 36) of 51 to 70%.
For Cc1ncsc1-c1ccc([C@H](C)NC(=O)[C@@H]2C[C@@H](O)CN2C(=O)[C@@H](NC(=O)COCCN2CCN(c3ccc(C(=O)N[C@H]4C[C@@H](Oc5ccc(C#N)c(Cl)c5)C4(C)C)cn3)CC2)C(C)(C)C)cc1 [Example 850, N-((1S,3R)-3-(3-chloro-4-cyanophenoxy)-2,2-dimethylcyclobutyl)-6-(4-(2-(2-(((S)-1-((2S, 4R)-4-hydroxy-2-(((S)-1-(4-(4-methylthiazol-5-yl)phenyl)ethyl)carbamoyl)pyrrolidin-1-yl)-3,3-dimethyl-1-oxobutan-2-yl)amino)-2-oxoethoxy)ethyl)piperazin-1-yl) nicotinamide], the DC50 (VCaP cells, Table 36) was less than 0.05 µM and the Dmax (VCaP cells, Table 36) was 51 to 70%.
Cc1ncsc1-c1ccc([C@H](C)NC(=O)[C@@H]2C[C@@H](O)CN2C(=O)[C@@H](NC(=O)CC2(CN3CCN(c4ccc(C(=O)N[C@H]5C(C)(C)[C@H](Oc6ccc(C#N)c(Cl)c6)C5(C)C)cn4)CC3)COC2)C(C)(C)C)cc1 [Example 851, N-((1r,3r)-3-(3-chloro-4-cyanophenoxy)-2,2,4,4-tetramethylcyclobutyl)-6-(4-((3-(2-(((S)-1-((2S,4R)-4-hydroxy-2-(((S)-1-(4-(4-methylthiazol-5-yl)phenyl)ethyl)carbamoyl)pyrrolidin-1-yl)-3,3-dimethyl-1-oxobutan-2-yl)amino)-2-oxoethyl)oxetan-3-yl)methyl)piperazin-1-yl)nicotinamide] showed a DC50 (VCaP cells, Table 36) of less than 0.05 µM and a Dmax (VCaP cells, Table 36) of 26 to 50%.
CC(=O)O[C@@H]1C[C@@H](C(=O)N[C@@H](C)c2ccc(-c3scnc3C)cc2)N(C(=O)[C@H](C(C)C)N2Cc3cc(OCCN4CCN(c5ccc(C(=O)N[C@H]6C(C)(C)[C@H](Oc7ccc(C#N)c(Cl)c7)C6(C)C)cn5)CC4)ccc3C2=O)C1 [Example 852, (3R,5S)-1-((S)-2-(5-(2-(4-(5-(((1r,3r)-3-(3-chloro-4-cyanophenoxy)-2,2,4,4-tetramethylcyclobutyl)carbamoyl)pyridin-2-yl)piperazin-1-yl)ethoxy)-1-oxoisoindolin-2-yl)-3-methylbutanoyl)-5-(((S)-1-(4-(4-methylthiazol-5-yl)phenyl)ethyl)carbamoyl)pyrrolidin-3-yl acetate] was tested, and the DC50 (VCaP cells, Table 36) was less than 0.05 µM and the Dmax was 51 to 70%.
Cc1ncsc1-c1ccc([C@H](C)NC(=O)[C@@H]2C[C@@H](O)CN2C(=O)[C@@H](NC(=O)CN2CCN(CC3CCN(c4ccc(C(=O)N[C@H]5C(C)(C)[C@H](Oc6ccc(C#N)c(Cl)c6)C5(C)C)cn4)CC3)CC2)C(C)(C)C)cc1 [Example 853, N-((1r,3r)-3-(3-chloro-4-cyanophenoxy)-2,2,4,4-tetramethylcyclobutyl)-6-(4-((4-(2-(((S)-1-((2S,4R)-4-hydroxy-2-(((S)-1-(4-(4-methylthiazol-5-yl)phenyl)ethyl)carbamoyl)pyrrolidin-1-yl)-3,3-dimethyl-1-oxobutan-2-yl)amino)-2-oxoethyl)piperazin-1-yl)methyl)piperidin-1-yl) nicotinamide] showed a DC50 (VCaP cells, Table 36) of less than 0.05 µM and a Dmax greater than 71%.
In the case of Cc1ncsc1-c1ccc([C@H](CO)NC(=O)[C@@H]2C[C@@H](O)CN2C(=O)[C@@H](NC(=O)CN2CCN(CC3CCN(c4ccc(C(=O)N[C@H]5C(C)(C)[C@H](Oc6ccc(C#N)c(Cl)c6)C5(C)C)cn4)CC3)CC2)C(C)(C)C)cc1 [Example 854, N-((1r,3r)-3-(3-chloro-4-cyanophenoxy)-2,2,4,4-tetramethylcyclobutyl)-6-(4-((4-(2-(((S)-1-((2S,4R)-4-hydroxy-2-(((R)-2-hydroxy-1-(4-(4-methylthiazol-5-yl)phenyl)ethyl)carbamoyl)pyrrolidin-1-yl)-3,3-dimethyl-1-oxobutan-2-yl)amino)-2-oxoethyl)piperazin-1-yl)methyl)piperidin-1-yl)nicotinamide], the DC50 (VCaP cells, Table 36) is reported as less than 0.05 µM and the Dmax is reported as greater than 71%.
Cc1ncsc1-c1ccc([C@H](C)NC(=O)[C@@H]2C[C@@H](O)CN2C(=O)[C@@H](NC(=O)COCCN2CCN(c3ccc(C(=O)N[C@H]4C(C)(C)[C@H](Oc5ccc(C#N)c(C(F)(F)F)c5)C4(C)C)cn3)CC2)C(C)(C)C)cc1 [Example 855, N-((1r,3r)-3-(4-cyano-3-(trifluoromethyl)phenoxyl)-2,2,4,4-tetramethylcyclobutyl)-6-(4-(2-(2-(((S)-1-((2S, 4R)-4-hyrdoxy-2-(((S)-1-(4-(4-methylthiazol-5-yl)phenyl)ethyl)carbamoyl)pyrrolidin-1-yl)-3,3-dimethyl-1-oxobutan-2-yl)amino)-2-oxoethoxy)ethyl)piperazin-1-yl) nicotinamide] showed a DC50 (VCaP cells, Table 36) of less than 0.05 µM and a Dmax (VCaP cells, Table 36) greater than 71%.
Work on Cc1ncsc1-c1ccc([C@H](C)NC(=O)[C@@H]2CC(O)CN2C(=O)[C@H](C(C)C)N2Cc3ccc(OCCN4CCN(c5ccc(C(=O)N[C@H]6C(C)(C)[C@H](Oc7ccc(C#N)c(Cl)c7)C6(C)C)cn5)CC4)cc3C2=O)cc1 (stereo partly drawn) [Example 856, N-((1r,3r)-3-(3-chloro-4-cyanophenoxy)-2,2,4,4-tetramethylcyclobutyl)-6-(4-(2-((2-((S)-1-((2S, 4R)-4-hydroxy-2-(((S)-1-(4-(4-methylthiazol-5-yl)phenyl)ethyl)carbamoyl)pyrrolidin-1-yl)-3-methyl-1-oxobutan-2-yl)-3-oxoisoindolin-5-yl)oxy)ethyl)piperazin-1-yl)nicotinamide] yielded a DC50 (VCaP cells, Table 36) greater than 0.501 µM and a Dmax (VCaP cells, Table 36) of less than 25%.
